Laboratory results: patent US10201563B2, “Method of treating sinusitis, including chronic sinusitis” (SINOX PHARMA, INC., priority 2010, dated 2019)

Legend:
[1] = test system: most microorganisms, including gram negative bacteria, fungal spores, and viruses; format: cell-based
viruses [2] = format: cell-based
viruses [3] = conditions: cited from earlier work
flu viruses = conditions: cited from earlier work
[4] = Gargle and nasal spray with ClO2 solution in people with sore throat, cold or sinusitis; conditions: in vivo
[5] = U.S. Pat. No. 5,731,347; Phase 2 clinical study; cited from earlier work

Compound	time to kill most microorganisms [1]	deactivation of all viruses (viruses [2])	inactivation of all viruses tested (viruses [3])	kill of all flu viruses (flu viruses)	inflammation and discomfort noted by users [4]	toxicity or irritation to the mucus membranes [4]	therapy for canker sores in the mouth [5]
chlorine dioxide	about one	deactivated in seconds	inactivated within a minute	in a few seconds	near-immediate reductions	non toxic or non-irritating	–
CC(O)C(=O)O (stereo not shown) [lactic acid]	–	–	–	–	–	–	excellent therapy
